ChEMBL document CHEMBL6127031, “Novel multitarget directed ligands inspired by riluzole: A serendipitous synthesis of substituted benzo[b][1,4]thiazepines potentially useful as neuroprotective agents” (Bioorg Med Chem, 2024)
Values belong to the molecule of their own block, whether it stands above or below them. Activity calls are given as the source filed them. No cut-off for these calls is given here.

How the values were obtained:
[1] = Apparent permeability of the compound in PBS buffer at pH 7.4 incubated for 4 hrs under shaking condition by LC-UV-MS analysis; assay type: ADME; details: not told
[2] = Permeability of the compound assessed as membrane retention rate by PAMPA method; assay type: ADME
[3] = system: SH-SY5Y; assay: Inhibition of Na channel in human SH-SY5Y cells assessed as normalized peak current density at 50 uM under -25 mV by whole-cell patch clamp assay; assay type: cell-based
[4] = system: SH-SY5Y; assay: Inhibition of Na channel in human SH-SY5Y cells assessed as reduction in current amplitude at 50 uM by whole-cell patch clamp assay relative to control; assay type: cell-based
[5] = system: SH-SY5Y; assay: Inhibition of Na channel in human SH-SY5Y cells assessed as change in channel activation at 50 uM under -30 to + 20 mV by whole-cell patch clamp assay; assay type: cell-based
[6] = system: SH-SY5Y; assay: Inhibition of Na channel in human SH-SY5Y cells assessed as maximum conductance at 50 uM by whole-cell patch clamp assay relative to control; assay type: cell-based
[7] = system: SH-SY5Y; assay: Inhibition of K channel in human SH-SY5Y cells assessed as reduction in steady-state component of KDR current at 50 uM under +60mV by whole-cell patch clamp assay relative to control; assay type: cell-based
[8] = system: SH-SY5Y; assay: Inhibition of K channel in human SH-SY5Y cells assessed as change in channel activation at 50 uM under +25 to +55 mV by whole-cell patch clamp assay; assay type: cell-based
[9] = system: SH-SY5Y; assay: Inhibition of K channel in human SH-SY5Y cells assessed as decrease in maximum conductance at 50 uM under +25 to +55 mV by whole-cell patch clamp assay relative to control; assay type: cell-based
[10] = system: Cerebral cortex; assay: Neuroprotective activity against OGD/R induced injury in male Wistar rat brain cortical slices assessed as reversal of tissue water gain at 0.01 to 10 uM; assay type: functional, tissue-based; details: dose 0.01-10 µM
[11] = system: Cerebral cortex; assay: Neuroprotective activity against OGD/R induced injury in male Wistar rat brain cortical slices assessed as reversal of LDH release at 0.01 to 10 uM by spectrophometric analysis; assay type: functional, tissue-based; details: dose 0.01-10 µM
[12] = system: Cerebral cortex; assay: Neuroprotective activity against OGD/R induced injury in male Wistar rat brain cortical slices assessed as reversal of tissue water gain at 0.001 to 10 uM; assay type: functional, tissue-based; details: dose 0.001-10 µM
[13] = system: Cerebral cortex; assay: Neuroprotective activity against OGD/R induced injury in male Wistar rat brain cortical slices assessed as reversal of LDH release at 0.001 to 10 uM by spectrophometric analysis; assay type: functional, tissue-based; details: dose 0.001-10 µM
[14] = system: Cerebral cortex; assay: Neuroprotective activity against OGD/R induced injury in male Wistar rat brain cortical slices assessed as reversal of tissue water gain at 0.01 to 1 uM; assay type: functional, tissue-based; details: dose 0.01-1 µM
[15] = system: Cerebral cortex; assay: Neuroprotective activity against OGD/R induced injury in male Wistar rat brain cortical slices assessed as reversal of LDH release at 0.01 to 1 uM by spectrophometric analysis; assay type: functional, tissue-based; details: dose 0.01-1 µM
[16] = system: Cerebral cortex; assay: Neuroprotective activity against OGD/R induced injury in male Wistar rat brain cortical slices assessed as effect on LDH release at 1 uM by spectrophometric analysis; assay type: functional, tissue-based
[17] = system: Cerebral cortex; assay: Neuroprotective activity against OGD/R induced injury in male Wistar rat brain cortical slices assessed as effect on tissue edema at 10 uM; assay type: functional, tissue-based
[18] = system: Cerebral cortex; assay: Neuroprotective activity against OGD/R induced injury in male Wistar rat brain cortical slices assessed as effect on LDH release at 10 uM by spectrophometric analysis; assay type: functional, tissue-based

Papp at 4 h [1]: 17 ×10⁻⁶ cm/s
R% [2]: 28.24%
Compound: N/C(=N\c1nc2ccccc2s1)N1CCCSc2ccccc21
inhibition [3]: Active
inhibition [4]: 28.4%
inhibition [5]: Active
inhibition [6]: 28.4%
inhibition [7]: 28.4%
inhibition [8]: Active
inhibition [9]: 35%
Activity [10]: Active
Activity [11]: Active

Compound: N/C(=N\c1nc2ccc([N+](=O)[O-])cc2s1)N1CCCSc2cc([N+](=O)[O-])ccc21
Activity [12]: inactive
Activity [13]: inactive

Papp at 4 h [1]: 17.2 ×10⁻⁶ cm/s
R% [2]: 10.73%
Compound: CC(C)NCC(O)COc1cccc2ccccc12 (stereo not given) [PROPRANOLOL]

Compound: N/C(=N\c1nc2ccc(OC(F)(F)F)cc2s1)N1CCCSc2cc(OC(F)(F)F)ccc21
Activity [14]: Active
Activity [15]: inactive
Activity [16]: inactive
Activity [17]: inactive
Activity [18]: inactive
